Laboratory results reported in US7230139B2, “Diterpenoid compounds, compositions thereof and their use as anti-cancer or anti-fungal agents” (priority 2004, dated 2007).
Like-named read-outs stand apart in the source and are kept apart here.

Legend:
[1] = system: C33A human cervical cancer cells; assay: C33A cervical tumor xenograft in SCID mice; assay type: in vivo, CB17 SCID/SCID female mice; conditions: for Tumor growth compared to vehicle: two-way ANOVA
Procedure: The resultant mice are a model for a human having cervical cancer.
The C33A human cervical cancer cells were maintained in RPMI supplemented with 10% inactivated fetal bovine serum and 1% penicillin-streptomycin-L-Glutamine, under 5% CO2 at 37° C., and passaged twice a week. The cells were grown at a confluency lower than 70% and then collected with Trypsin (Bio-Whittaker, Md., USA). The cells were then centrifuged and washed twice using phosphate buffered saline solution (PBS) and resuspended in PBS at 2×10^6 cells per 100 μl. Viability was examined by staining with Trypan Blue and only flasks with cell viability of greater than 95% were used for in vivo studies.
(§1) C33A cells were transplanted subcutaneously into the flank of female CB17 SCID/SCID mice. Each mouse was inoculated with a suspension of 2×10^6 tumor cells per 100 μL on day zero. The following six treatment groups of ten mice each were used: (a) a negative control group treated with intravenous (i.v.) injection of vehicle, (b) a negative control group treated with intraperitoneal (i.p.) injection of vehicle, (c) a positive control group treated with i.p. injection of Cisplatin, (d) a group treated with i.v. injection of a Compound 50, (e) a group treated with i.p. injection of Compound 50, and (f) a group treated with subcutaneous (s.c.) injection of Compound 50.
(§2) Treatment started on day thirteen after C33A cells transplantation for Compound 50 treated groups and on day fourteen for Cisplatin treated group. Compound 50 was administered i.v., i.p., and s.c. once daily for five consecutive days at a dose of 10, 15 and 30 mg/kg, respectively. Compound 50 was prepared as a working solution of 1.5 mg/mL in a vehicle solution of 20% Cremaphor EL (Sigma, St. Louis, Mo., USA), 10% Ethanol and 5% Dextrose (Abbot Laboratories, QC, Canada). The negative control groups were treated with vehicle alone. The positive control group was treated once every 3 days for fifteen days at a dose of 3.5 mg/kg. Cisplatin was formulated in PBS on each day of the injection and was administered i.p.
The mice were weighed and the tumors measured on day 13 and every 2 to 3 days after treatment commenced. Observations continued for 36 days after initial tumor implantation. The changes in body weight and in the calculated tumor volume were plotted (FIGS. 4 and 5). Statistical analysis was performed using GraphPad Prism (GraphPad Software Inc., San Diego, Calif.). Two-way ANOVA was used to determine how the treatment affected tumor growth over time. Following the two-way ANOVA, post-tests were performed using the Benferroni method to determine the statistical difference between the mean tumor-size of the two groups being compared on every day that the tumors were measured. Four animals in the negative control injected i.v. with vehicle and two animals in the group treated i.v. with Compound 50 died during the observation period. Therefore, the data collected from these animals were excluded from all calculations and the total number of animals in the groups changed to six for the negative control injected i.v. with vehicle and eight for the group treated i.v. with Compound 50.

[2] = Body weight of SW480 tumor-bearing mice; assay type: in vivo, CB17 SCID/SCID female mice; conditions: i.v. once daily for five days; 10 mg/kg (50, 50a, 50b), 50 mg/kg (74a)
Procedure: SW480 cells were transplanted subcutaneously into the flank of female CB 17 SCID/SCID mice. Each mouse was inoculated with a suspension of 1×10^6 tumor cells per 100 μL on day zero. The following five treatment groups of ten mice each were used: (a) a negative control group treated with intravenous (i.v.) injection of vehicle, (b) a group treated with i.v. injection of a Compound 50, (c) a group treated with i.v. injection of a Compound 50a, (d) a group treated with i.v. injection of Compound 50b, (e) a group treated with i.v. injection of Compound 74a.
Treatment started on day twelve after SW480 cells transplantation and Compounds 50, 50a, 50b and 74a were administered i.v. once daily for five consecutive days at a dose of 10, 10, 10 and 50 mg/kg, respectively. Compound 50, 50a and 50b were prepared as a working solution of 1.5 mg/mL in a vehicle solution of 20% Cremaphor EL (Sigma, St. Louis, Miss., USA), and 10% Ethanol. Compound 74a was prepared as a working solution of 5 mg/mL in a vehicle solution of 5% Dextrose (Abbot Laboratories, QC, Canada). The negative control groups were treated with vehicle solution of 20% Cremaphor EL and 10% Ethanol alone.
(§3) The mice were weighed and the tumors measured on day 12 and every 2 to 3 days after treatment commenced. Observations continued for 23 days after initial tumor implantation. The changes in body weight and in the calculated tumor volume were plotted (FIGS. 9 and 10). Statistical analysis was performed using GraphPad Prism (GraphPad Software Inc., San Diego, Calif.). Two-way ANOVA was used to determine how the treatment affected tumor growth over time. Following the two-way ANOVA, post-tests were performed using the Benferroni method to determine the statistical difference between the mean tumor-size of the two groups being compared on every day that the tumors were measured.

[3] = assay type: in vivo, CB17 SCID/SCID female mice
Procedure: as §1, §2
as §3, with “13” for “12”, “36” for “23”, “4” for “9”, “5).” for “10).”, “measured. […]” for “measured.”

Which results are given for COc1ccc2c(c1)C1(C)C=CC(=O)C(C)(C)C1=C(O)C2=O (racemic) [Compound 50]?
Tumor growth compared to vehicle ([1]; i.p. 15 mg/kg once a day for five days): significant reduction (p<0.001); Mean tumor-size compared to vehicle ([1]; i.p., day 34 and day 36): significantly (p<0.05) smaller mean tumor-size; Tumor growth compared to vehicle ([1]; i.v. 10 mg/kg once a day for five days): significant reduction (p<0.001); Mean tumor-size compared to vehicle ([1]; i.v. 10 mg/kg, day 36): significantly (p<0.05) smaller mean tumor-size; Tumor growth compared to vehicle ([1]; s.c. 30 mg/kg once a day for five days): significant reduction (p<0.001); Mean tumor-size compared to vehicle ([1]; s.c., day 34 (p<0.01) and day 36 (p<0.001)): significantly smaller mean tumor-size; Change in body weight [2]: non-significant change in body weight; Change in body weight ([3]; Compound 50 i.v., i.p. or s.c. 10, 15, 30 mg/kg once daily for five days): non-significant change in body weight; Animals died during the observation period ([3]; i.v. group of ten mice, four died in the i.v. vehicle group): two animals
